“Also recorded” adds a separate entry of the source. Ends that are not written are not given here.
Assays:
[1] = tested on: peptide-pulsed A24LCL cells; assay: IFN-gamma ELISPOT on CTLs induced with HLA-A2402 restricted Foxp3 peptides; assay type: cell-based, human; settings: FIG. 1A/1B
From the text: (§1) Monocyte-derived dendritic cells (DCs) were used as antigen-presenting cells (APCs) to induce CTL responses against peptides presented on HLA. DCs were generated in vitro as described elsewhere (Horiguchi S. et al. Cancer Res. 59:2950-6). Specifically, peripheral blood mononuclear cells (PBMCs) isolated from normal volunteer (HLA-A*2402 and/or HLA-A*0201) with Ficoll-Plaque (Pharmacia) solution were separated by adherence to plastic tissue culture dish (Becton Dickinson) so as to enrich them for the monocyte fraction. The monocyte-enriched population was cultured in the presence of 1000 U/ml of GM-CSF (R&D System) and 1000 U/ml of IL-4 (R&D System) in AIM-V medium (Invitrogen) containing 2% heat-inactivated autologous serum (AS). After 7 days in the culture, the cytokine-generated DCs were pulsed with 20 mcg/ml of the synthesized peptides in the presence of 3 mcg/ml of beta2-microglobulin for 4 hrs at 20 degrees C. in AIM-V medium. These peptide-pulsed DCs were then inactivated with mitomycin C (MMC) (30 mcg/ml for 30 mins) and mixed at a 1:20 ratio with autologous CD8+ T cells, obtained by positive selection with CD8 Positive Isolation Kit (Dynal). These cultures were set up in 48-well plates (Corning); each well contained 1.5×10^4 peptide-pulsed DCs, 3×10^5 CD8+ T cells and 10 ng/ml of IL-7 (R&D System) in 0.5 ml of AIM-V/2% AS. Three days later, these cultures were supplemented with IL-2 (CHIRON) to a final concentration of 20 IU/ml. On day 7 and 14, the T cells were further restimulated with the peptide-pulsed autologous DCs. The DCs were prepared each time through the same procedure described above. CTL activity was tested against peptide-pulsed A24LCL cells or T2 cells after the 3rd round of peptide stimulation on day 21.
(§2) To examine the specific CTL activity, IFN-gamma ELISPOT assay and IFN-gamma ELISA were performed. Briefly, peptide-pulsed A24-LCL, T2 cell (1×10^4/well) or the cells endogenously expressing Foxp3 and HLA molecule was prepared as a stimulator cells. Cultured CTL lines in 48 wells were used as a responder cells. IFN-gamma ELISPOT assay and IFN-gamma ELISA were performed under manufacture procedure.
CTLs for the peptides derived from Foxp3 protein were generated according to the method described in the “Materials and Methods”, supra.

[2] = tested on: peptide-pulsed A24LCL cells or T2 cells; assay: In vitro CTL induction by peptide-loaded dendritic cells (summary statements); assay type: cell-based, human; settings: for specific CTL activity: against peptide pulsed target cells; for establishment of CTLs: in vitro stimulation of T-cells by DCs loaded with peptide
From the text: Confirmation of CTL inducibility can be accomplished by inducing antigen-presenting cells carrying human MHC antigens (for example, B-lymphocytes, macrophages, and dendritic cells), or more specifically dendritic cells derived from human peripheral blood mononuclear leukocytes, and after stimulation with the peptides, mixing with CD8-positive cells, and then measuring the IFN-gamma produced and released by CTL against the target cells. As the reaction system, transgenic animals that have been produced to express a human HLA antigen (for example, those described in BenMohamed L, Krishnan R, Longmate J, Auge C, Low L, Primus J, Diamond D J, Hum Immunol 61(8): 764-79, 2000 August, Related Articles, Books, Linkout Induction of CTL response by a minimal epitope vaccine in HLA A*0201/DR1 transgenic mice: dependence on HLA class II restricted T(H) response) can be used. For example, the target cells can be radiolabeled with ^51Cr and such, and cytotoxic activity can be calculated from radioactivity released from the target cells. Alternatively, it can be examined by measuring IFN-gamma produced and released by CTL in the presence of antigen-presenting cells that carry immobilized peptides, and visualizing the inhibition zone on the media using anti-IFN-gamma monoclonal antibodies.
as §1, §2

[3] = tested on: peptide-pulsed A24LCL cells; assay: IFN-gamma ELISA on expanded CTL lines, HLA-A24 peptides; assay type: cell-based, human; settings: expanded cells of positive wells, FIG. 3E, 3G
Procedure: CTLs were expanded in culture using a similar method as reported by Riddell, et al. (Walter et al., N Engl J Med 333(16): 1038-44, 1995; Riddell et al., Nat Med 2(2): 216-23, 1996 February). A total of 5×10^4 CTLs were resuspended in 25 ml of AIM-V/5% AS with 2 kinds of human B-lymphoblastoid cell lines, inactivated with MMC, in the presence of 40 ng/ml of anti-CD3 monoclonal antibody (Pharmingen). One day after initiating the cultures, 120 IU/ml of IL-2 were added to the cultures. The cultures were fed with fresh AIM-V/5% AS containing 30 IU/ml of IL-2 on days 5, 8 and 11.
as §2
These cells in the positive wells were expanded and performed IFN-gamma ELISA assay.

HLA-A2 molecule = target: T1, HLA-A2 molecule (Homo sapiens, UniProt P04439, D140Y/D185E/D98H/E176V/E277Q/G131W/G231S/I119V/I121R/I166T/I218V/L300P/L318F/N151K/N90K/P208A/P217A/Q86G/Q94H/R138H/R169H/T345S); assay: CTL induction with Foxp3-9-252 substitutions restricted HLA-A*0201; assay type: cell-based; settings: FIG. 7C; for IFN-gamma production compared with the control: positive wells
T1 construct: peripheral blood mononuclear cells (PBMCs) isolated from normal volunteer (HLA-A*2402 and/or HLA-A*0201); endogenous in cells; host or cells: monocyte-derived dendritic cells of HLA-A*0201 volunteers; T2 cells as stimulators in the read-out
Procedure: (§3) In FIG. 7C CTLs could be induced by stimulation with Foxp3-9-252 substitutions targeted HLA-A2 molecule. CTLs for all substituted peptides targeted HLA-A2 molecule were generated in the way as described in “Materials and Methods”. […] CTL line induced with Foxp3-9-252-9V peptide was used as responder cells. T2 cells incubated with Foxp3-9-252-9V (-solid circle-) or Foxp3-9-252-WT (-open circle-) peptide and without any peptide (-open square-) were used as stimulator cells in this assay (1×10^4 cells/well).
as §1, §2
(§4) On the other hand, the present inventers attempted the induction of CTLs using all substitutions restricted HLA-A*0201 including Foxp3-9-252-9V peptide. […] After CTL line induced by stimulation with Foxp3-9-252-9V was established by in vitro expansion, the CTL activity was determined by using stimulator cells pulsed with Foxp3-9-252-WT or Foxp3-9-252-9V peptide.

peptide pulsed T2 cells [4] = assay: IFN-gamma ELISPOT: CTL line induced with Foxp3-9-252-WT against T2 cells pulsed with substituted peptide; assay type: cell-based, human; settings: FIG. 7A, listed as Foxp3-9-252-9V
Procedure: IFN-gamma ELISPOT assay was performed using CTL line induced with Foxp3-9-252-WT peptide as responder cells and T2 cells pulsed Foxp3-9-252-WT or Foxp3-9-252-9V peptide as stimulator cells, respectively. T2 cells without peptide pulse were prepared as control. […] IFN-gamma ELISA assay was performed using CTL line induced with Foxp3-9-252-WT peptide as responder cells (1×10^5 cells/well) and Foxp3-9-252-WT (-solid circle-), Foxp3-9-252-9V (-open circle-) or HIV-A02 (-solid triangle-) peptide pulsed T2 cells as stimulator cells (1×10^4 cells/well). Peptide pulse of stimulator cells was conducted at 37 degree Celsius for 2 hours in each kind of peptide and peptide concentration.
as §2
And then the present inventers examined whether peptide-pulsed stimulator cells using these substitutions were recognized by CTLs generated with Foxp3-9-252-WT peptide.

peptide pulsed T2 cells [5] = assay: CTL line induced with Foxp3-9-252-9V against peptide-pulsed T2 cells; assay type: cell-based, human; settings: FIG. 7D, listed as Foxp3-9-252-9V
Procedure: as §3, §4

Substance	IFN-gamma production of CTLs stimulated with peptide, compared with the control [1]	specific CTL activity [2]	establishment of CTLs [2]	IFN-gamma production of CTL lines stimulated with peptide, compared with the control [3]	CTL induction by stimulation with substituted peptide (HLA-A2 molecule)	IFN-gamma production compared with the control (HLA-A2 molecule; listed as Foxp3-9-252-9V)	IFN-gamma production compared with the control (HLA-A2 molecule; listed as Foxp3-A02-9-252-9V)	IFN-gamma production of Foxp3-9-252-WT induced CTLs against peptide pulsed T2 cells (peptide pulsed T2 cells [4])	recognition of Foxp3-9-252-WT pulsed stimulator cells by CTLs induced with substituted peptide (peptide pulsed T2 cells [5])
GPLPhLQALL (GPLPHLQALL; not fully specified (residue 5); printed as GPLPhLQALL) [SEQ ID NO 67]	potent IFN-gamma production	significant and specific CTL activity	CTLs were successfully established	potent IFN-gamma production					
KLSAMQAHV (peptide vaccine) [SEQ ID NO 95]					CTLs were induced	showed IFN-gamma production	peptide-dependent IFN-gamma production	produced IFN-gamma; also recorded: recognize the cells presenting Foxp3-9-252-9V peptide on HLA-A2 molecule	recognized stimulator cells pulsed Foxp3-9-252-WT peptide as equal to that pulsed Foxp3-9-252-9V peptide; also recorded: recognize stimulator cells coated with Foxp3-9-252-WT peptide
SLNPmPPSQL (chain 1 SLNPMPPSQL; chain 2 SLNPMPPSQL; not fully specified (some residues)) [SEQ ID NO 74]	potent IFN-gamma production	significant and specific CTL activity	CTLs were successfully established	potent IFN-gamma production					
